Measurements reported in patent US4218456A, “1-(4-Fluorophenyl)-4-(1,2,3,6-tetrahydro-4-phenoxy-1-pyridinyl)-butanones” (Warner-Lambert Company, priority 1978, dated 1980).

Tested on: dopamine receptor binding sites
Assay: 3H-Haloperidol Receptor Binding Assay (HRBA)
Details: at 10^-8 mol/L concentration in vitro
Text: As with other known antipsychotics, the compounds of formula I readily displace ^3 H-haloperidol from dopamine receptor binding sites in the ^3 H-Haloperidol Receptor Binding Assay (HRBA). […] The HRBA screen is described by I. Creese, D. R. Burt and S. H. Snyder, Science, 192, 481 (1976) and P. Seeman, T. Lee, M. Chan-Wong and K. Wong, Nature, 261, 717 (1976).

## O=C(CCCN1CC=C(Oc2ccc(F)cc2)CC1)c1ccc(F)cc1 [Example 9, 4-[4-(4-Fluorophenoxy)-1,2,3,6-tetrahydro-1-pyridinyl]-1-(4-fluorophenyl)-1-butanone(Z)-2-Butenedioate]
  inhibition of 3H-haloperidol: 87%
